The source of these data is patent publication US11786555B2, “RAR selective agonists in combination with immune modulators for cancer immunotherapy” (IO THERAPEUTICS, INC., priority 2017, dated 2023).

For one assay, the system named is H929 cells. Description: mobilization experiment, BTZ after separation from BM stroma. Type of assay: cell-based, human. On the procedure: FIG. 5 depicts clonogenic recovery of H929 cells treated with BTZ (2.5 nM). MM cells were incubated for 5 days in the absence (Liquid) or presence of BM mesenchymal cells (Stroma), with or without R115 (1 μM). Following this preincubation, H929 cells were separated from BM stroma, cultured in fresh media for 0 to 48 hours, and then treated with BTZ (2.5 nM) for 48 hours. Clonogenic recovery was normalized to each condition in the absence of BTZ.
Mobilization experiments. MM cells were separated from BM stromal cells by gently pipetting several times around the well. Detached cells were centrifuged, resuspended in fresh media, and incubated in a 24-well plate for 1 hr at 37° C. During this short incubation period, contaminating stromal cells attached to the well, while MM cells remained in suspension. MM cells were then recovered by gently pipetting. This protocol was used for qRT-PCR and CFU coculture experiments. […]
Clonogenic assays. […] Cells were plated in triplicate in 35-mm culture dishes, incubated at 37° C., and scored for the presence of colonies 14 days later.
Strategies to overcome microenvironment-dependent chemoprotection have focused on mobilization of cancer cells from the BM niche into the peripheral circulation. It was analyzed whether the change in phenotype and subsequent BTZ resistance of MM cells were lost upon separation from the BM stroma, a process that mimics mobilization. […]

Assay [1] concerns H929 cells and primary CD138+ MM cells. Description: clonogenic or cellular recovery of MM cells after BTZ treatment. Format: cell-based, human. Particulars: for sensitivity of MM cells to BTZ: BTZ 2.5 nM for 48 hours. The procedure: FIG. 4A-B depicts the clonogenic recovery (CFU) of H929 cells (FIG. 4A) or cellular recovery of primary CD138+ MM cells from 3 different patient samples (FIG. 4B). MM cells were treated with bortezomib (BTZ; 2.5 nM) for 48 hours after being incubated for 5 days either in the absence of stroma (Liquid), with or without the pan-RAR inhibitor AGN (1 μM), or in the presence of BM mesenchymal cells (Stroma), with or without the CYP26 inhibitor R115 (1 μM) or the CYP26-resistant retinoid IRX (1 μM). Clonogenic or cellular recovery was normalized to each condition in the absence of BTZ.
(§1) Coculture experiments. 24-well plates were coated with 0.1% gelatin in PBS for 30 min at 37° C. The gelatin solution was removed, and the stromal cells were cultured overnight at a density of 5×10^4 cells/well to obtain a confluent monolayer. At that time, MM cell lines or primary MM cells (1×10^5 in 2 ml) were added to the stroma cultures. The stroma cocultures were incubated at 37° C. in RPMI containing 10% FCS, L-glutamine, and P/S, with or without AGN194310 (1 μM for 5 days), R115866 (1 μM for 5 days), IRX5183 (1 μM for 5 days), or BTZ (2.5 nM for 48 hr).
Clonogenic assays. After treatment, MM cells were collected, washed with PBS, and plated at a density of 5,000 cells/ml in 1 ml of 1.32% methylcellulose supplemented with 30% FBS, 10% BSA, L-glutamine, P/S, and 0.1 mM β-ME. Cells were plated in triplicate in 35-mm culture dishes, incubated at 37° C., and scored for the presence of colonies 14 days later.
A RA-low microenvironment induces BTZ resistance. To determine whether decreased retinoid signaling contributes to BTZ resistance within the BM niche, MM cell lines and MM CD138+ primary cells were incubated with BM stroma for 5 days, followed by BTZ treatment.

Assay [2] deals with H929 cells and CD138+ primary MM cells. Description: qRT-PCR of B cell and PC markers in MM cells, liquid or BM stroma co-culture. Type of assay: cell-based, human. The procedure:
FIG. 3A-H depicts the relative concentration of plasma markers BCL6 (FIG. 3A and E), BLIMP-1 (FIG. 3B and F), XBPS-1 (FIG. 3C and G), and CHOP (FIG. 3D and H) in multiple myeloma (MM) cell lines H929 (FIG. 3A-D) or CD138+ MM cells from three different patient samples (FIG. 3E-H) incubated for 5 days either in the absence of stroma (Liquid), with or without AGN (RA receptor antagonist AGN194310, 1 μM), or co-cultured with BM mesenchymal cells (Stroma), with or without R115 (CYP26 inhibitor R115866, 1 μM) or IRX (CYP26-resistant retinoid IRX5183, 1 μM). Expression in untreated liquid conditions was set at 1. Data are representative of 3 independent experiments with similar results and represent the mean ±SEM. *P≤0.05 and **P≤0.01, by repeated-measures 1-way ANOVA for determination of statistical significance between groups; P values were corrected for multiple comparisons using Dunnett's test. Ctrl, control; max, maximum.
as §1
(§2) qRT-PCR. Total RNA was extracted using the RNeasy Mini Kit (QIAGEN) according to the manufacturer's instructions. cDNA was synthesized by reverse transcription using the iScript cDNA Synthesis Kit (Bio-Rad). qRT-PCR was performed with iTaq SYBR Green Supermix (Bio-Rad) using sequence specific primers. Gene expression was normalized to GAPDH, and relative quantification was calculated using ΔΔCt. All experiments were performed in duplicate and run on the Bio-Rad CFX96 machine.
The BM microenvironment (also called “niche”) limits PC differentiation by modulating retinoid signaling. A population of MM progenitors, phenotypically similar to B cells, is intrinsically resistant to BTZ and contributes to MRD and relapse. To investigate whether the BM niche plays a role in determining the phenotype of MM cells, the mRNA expression of B cell and PC markers in MM H929 cell lines (FIG. 3A-D) and MM CD138+ primary cells (FIG. 3E-H) was analyzed following co-culture with mouse BM stroma using human-specific primers. […] In contrast, co-culture of MM cells with BM stroma decreased the mRNA expression of B lymphocyte-induced maturation protein 1 (BLIMP1) and spliced X box-binding protein 1 (XBP1s) (FIG. 3B, C, F, G), which are critical mediators of PC differentiation.
The BM niche regulates hematopoietic stem cell (HSC) differentiation by expressing the retinoid-inactivating enzyme CYP26. CYP26 enzymes were highly expressed in BM mesenchymal cells, while their expression was barely detectable in MM cells. Since retinoid signaling promotes PC differentiation and potentiates Ig secretion, it was determined whether stromal CYP26 is responsible for inducing a B cell phenotype in MM cells. To this end, co-culture conditions were treated with the CYP26 inhibitor R115866 (R115) or the CYP26-resistant RA receptor α-selective (RARα-selective) retinoid IRX5183 (IRX).

In another assay the test system is NB4 cells. Description: CFU experiments, off and on stroma. As to conditions: 10^−7 M ATRA, IRX5183, or 10^−8 M AM80. Format: cell-based. An excerpt:
(§3) Data across three independent experiments.

The subject of a further assay is OCI-AML3 cells. Description: CFU experiments, off and on stroma. Type of assay: cell-based. As to conditions: 10^−6 M ATRA, IRX5183, or 10^−7 M AM80.
Text: as §3

The subject of the next assay is Kasumi-1 cells. Description: CFU experiments, off and on stroma. Type of assay: cell-based. Particulars: 10^−6 M ATRA, IRX5183, or 10^−7 M AM80.
Text: as §3

A further assay concerns H929 Luc+ cells. Description: systemic MM xenograft, bioluminescence. As to conditions: monotherapy, 4 weeks; BTZ 0.5 mg/kg i.p. twice weekly, IRX 10 mg/kg once daily. Format: in vivo, mouse. The procedure:
FIG. 6 depicts bioluminescent images of systemic MM xenografts. Following engraftment of H929 Luc+ cells, mice were treated with IRX (n=4), BTZ (n=5), or a combination of both (n=5) for 4 weeks. Data represent the mean±SEM of the fold change in bioluminescence (photons/second) from day 0.
For the systemic MM model, 2×10^6 Luc+/GFP+ H929 cells were injected via the tail vein into 16-week-old male NSG mice. After engraftment, as determined by an exponential increase in bioluminescence, mice were treated with BTZ (0.5 mg/kg i.p.) twice weekly and with IRX (10 mg/kg) once daily. Tumor burden was assessed by bioluminescence, as above.
To test whether retinoids can enhance BTZ activity in MM, a systemic MM xenograft was developed by injecting 2×10^6 H929 luciferase+ (Luc+) cells via the tail vein of non-obese, diabetic, severe combined immunodeficiency IL-2 receptor y-KO (NSG) mice. The animals were randomized to receive IRX, BTZ, or a combination of both, and disease burden was followed weekly by bioluminescence imaging (FIG. 6).

Assay [3] has as its system H929 Luc+ cells with WT or Smo-KO stroma. Description: subcutaneous xenograft model of MM-niche interactions, bioluminescence. Format: in vivo, mouse. As to conditions: BTZ 0.5 mg/kg i.p. twice weekly. The procedure:
FIG. 9 depicts bioluminescent images of mice showing tumor burden during 4 weeks of treatment with IRX (10 mg/kg), BTZ (0.5 mg/kg), or the combination. Anterior tumors consisted of a combination of MM.1S luciferase^+ cells and Smo^FI/FI BM stroma cells transduced with a control vector (WT BM stroma). Posterior tumors consisted of a combination of MM.1S luciferase^+ cells and Smo^FI/FI BM stroma cells transduced with Cre-recombinase (Smo KO BM stroma).
FIG. 10 depicts the fold change in bioluminescence (photons/second) of tumors during 4 weeks of treatment. The change in bioluminescence for each tumor […].
Mouse xenografts. 1×10^6 H929 Luc+ cells and 1×10^6 mouse BM stromal cells were resuspended in 100 μl […]®, diluted with RPMI (1:1), and injected subcutaneously into 16-week-old male NSG mice. After 4 days, treatment with BTZ (0.5 mg/kg i.p. twice weekly) and IRX (10 mg/kg i.p. daily) was initiated. Tumor burden was assessed by bioluminescence using the In Vivo Imaging System (PerkinElmer). For imaging, mice were exposed to 120 mg/kg D-luciferin via intraperitoneal injection […] before imaging and were anesthetized using isoflurane. Images were analyzed with Living Image Software, version 2.5 (PerkinElmer), and data were quantified as photons/second.
To study to what extent an RA-low environment created by the BM stroma and enhanced by MM cells via paracrine Hedgehog signaling contributes to BTZ resistance, a xenograft model of MM-niche interactions was developed. Each mouse carried 2 subcutaneous tumors consisting of H929 Luc+ cells and either WT (anterior tumors) or Smo-KO stroma (posterior tumors). Mice were treated with IRX (10 mg/kg i.p. daily), BTZ (0.5 mg/kg i.p. twice weekly), or a combination of both. The growth of tumors bearing WT or Smo-KO stroma was not different in untreated or IRX-treated groups (FIGS. 9 and 10). […] While some tumors in the treatment group receiving combined IRX and BTZ appeared to have regressed completely, even after anatomical study, this was not the case for all the mice in this group.

A further assay concerns BM stromal cells. Description: CYP26A1 expression in BM stromal cells exposed to soluble factors. Format: cell-based. Particulars: soluble factors tested. On the procedure: as §2

As to `CCC(CC)C(c1ccc(Nc2nc3ccccc3s2)cc1)n1cncn1` (stereo not drawn) [Compound R115866], the “development of BTZ-resistant phenotype” value in the assay on H929 cells (co-culture treated with 1 μM, then separation and BTZ) is “prevented the development of a BTZ-resistant phenotype”. Also, the “effect on stroma-induced BTZ resistance” value in assay [1] (stroma co-culture, 1 μM for 5 days, then BTZ 2.5 nM) is “overcome”. Also, in [2] (liquid conditions compared with BM stroma), the “expression of differentiation markers by qRT-PCR or flow cytometry” value is “did not significantly affect the expression of differentiation markers”. Moreover, the “mRNA expression of B cell and PC markers (BCL6, BLIMP1, XBP1s, CHOP)” value in [2] (stroma co-cultures, 1 μM for 5 days) is listed as “restored all markers to levels comparable to those of liquid control conditions”.

Regarding `CC1=C(/C=C/C(C)=C/C=C/C(C)=C/C(=O)O)C(C)(C)CCC1` [ATRA, all-trans retinoic acid], the “clonogenic growth (CFU), differentiation and elimination of AML” value in the assay with NB4 cells, in the assay on OCI-AML3 cells and in the assay with Kasumi-1 cells was “stroma blockage” in each case.

For `CC(C)C[C@H](NC(=O)[C@H](Cc1ccccc1)NC(=O)c1cnccn1)B(O)O` [BTZ, bortezomib], the “tumor burden (bioluminescence)” value in the assay on H929 Luc+ cells is “decreased tumor growth compared with untreated controls”. The “BTZ resistance after separation from BM stroma” value in the assay on H929 cells (5-day stroma co-culture, fresh media 0 to 48 hr, then BTZ 2.5 nM) is “remained partially resistant to BTZ for up to 48 hr following detachment from stroma”. In addition, the “tumor response (bioluminescence)” value in assay [3] (tumors carrying Smo-KO stroma) was “significant response”; in [3] (tumors with WT stroma), “refractory to BTZ treatment”. In addition, the results for the “sensitivity of MM cells to BTZ” value in assay [1] (absence of BM stroma (liquid)) and in assay [1] (after 5 days incubation with BM stroma) were “highly sensitive to BTZ” and “induced BTZ resistance”, respectively.

With TNF-α, in the assay with BM stromal cells, the “expression of CYP26A1 on BM stromal cells” value is given as “no significant effects”.

In the case of “IL-6: cytokine, soluble factor produced by MM cells”, in the assay on BM stromal cells, the “expression of CYP26A1 on BM stromal cells” value is “no significant effects”.
